Entries after “also recorded” stand apart in the source; their conditions may differ.
Assays:
Calu-3 monolayers = assay: Transepithelial short-circuit current (Isc) across unstimulated Calu-3 monolayers; type: cell-based, human; settings: compound added to mucosal (or serosal) perfusion; L-ascorbic acid 100 μM; dehydroascorbic acid 10, 100 or 300 μM
Summary of the method: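 Unstimulated Calu-3 monolayers given compound on the mucosal side at increasing concentrations. Chloride current recorded with serosal-to-mucosal chloride gradient at 0 mV, 2 mV pulses. Forskolin (20 μM, serosal) used for comparison.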

[1] = tested on: CF15 monolayers homozygous for ΔF508 CFTR; assay: Short-circuit current across CF15 monolayers homozygous for ΔF508 CFTR; type: cell-based, human
Protocol: Human airway cell culture. The human submucosal serous gland-like cell line Calu-3, the CF nasal epithelial cell line homozygous for ΔF508 CFTR (CF15) and human tracheal primary cultures (hTE) were cultured as described (Jefferson, D. M., Valentich, J. D., Marini, F. C., Grubman, S. A., Iannuzzi, M. C., Dorkin, H. L., Li, M., Klinger, K. W. & Welsh, M. J. (1990) Am. J. Physiol. 259, L496-L505. Sachs, L. A., Finkbeiner, W. E. & Widdicombe, J. H. (2003) In Vitro Cell Dev. Biol. Anim. 39, 56-62.). Wildtype CFTR-corrected CF15 cells were generated via adenovirus-mediated gene transfer. Growth media were nominally free of ascorbic acid (<10 μm, University Pathology Inc., Salt Lake City, Utah). For transepithelial measurements cells were grown on permeable filter inserts and used after 3 to 10 days.
Short-circuit current measurement. Calu-3 or CF15 cells were grown as monolayers, mounted in Ussing chambers and short-circuit current (ISC) was recorded as described (Illek, B. & Fischer, H. (1998) Am. J. Physiol. 275, L902-L910). At 20-50 second intervals, transepithelial voltage was clamped from zero to 2 mV and the transepithelial resistance (Rte) was calculated. A serosa-to-mucosa-directed Cl gradient was applied. Serosal Ussing chamber solution contained (in mM): 120 NaCl, 20 NaHCO3, 5 KHCO3, 1.2 NaH2PO4, 5.6 glucose, 2.5 CaCl2, 1.2 MgCl2. In mucosal Ussing chamber solutions, all Cl salts were exchanged for gluconate salts.
The CF15 cell line was used to determine whether ascorbate-stimulated Cl currents were solely mediated by the CFTR Cl conductance. The CF15 cell line is characterized by the absence of functional CFTR in the apical plasma membrane but the presence of other non-CFTR Cl conductances (Jefferson, D. M., Valentich, J. D., Marini, F. C., Grubman, S. A., Iannuzzi, M. C., Dorkin, H. L., Li, M., Klinger, K. W. & Welsh, M. J. (1990) Am. J. Physiol. 259, L496-L505). A concentration of L-ascorbic acid that lay within the upper plateau of the dose response curve (500 μm) was applied and ascorbate-stimulated Cl currents in CF15 vs. wildtype CFTR-corrected CF15 monolayers was compared (FIG. 23A). […] The defective response to L-ascorbic acid was reversed in wildtype CFTR-corrected CF15 epithelia such that ISC responded promptly to L-ascorbic acid (ΔISC=7.5±0.5 μA/cm^2, n=6). The ascorbate-stimulated current was further activated by the cAMP agonist forskolin and total stimulated ISC averaged 12.1±1.1 μA/cm^2 (FIG. 4B). The ascorbate-stimulated Cl current reached 60±15% of the forskolin-stimulated current in CFTR-corrected CF15 monolayers, which was close to the corresponding findings in Calu-3 monolayers (68%, see FIG. 21A). […]
In this example, chloride currents stimulated by L-ascorbate or D-ascorbate were measured in CF15 versus. wildtype CFTR-corrected CF15 monolayers. A concentration of L-ascorbate (1 mM) or D-isoascorbate (300 μm) that lay within the upper plateau of the dose-response curve was applied to cells and the resulting chloride currents stimulated in CF15 versus wildtype CFTR-corrected CF15 monolayers were measured (FIG. 25 A-H). […]
The functional activation of ΔF508 CFTR was determined after correction of the underlying trafficking defect of ΔF508 CFTR using S-Nitrosoglutathione (Zaman, et al., Biochem Biophys Res Commun 284: 65-70, 2001; Snyder, et al., American Journal of Respiratory and Critical Care Medicine 165: 922-6, 2002; Andersson, et al. Biochemical and Biophysical Research Communication 297(3): 552-557, 2002.). […]

O=C1O[C@H](C(O)CO)C(O)=C1O (stereo partly drawn) [L-ascorbic acid, L-xyloascorbic acid] was tested, and the “transepithelial chloride currents in unstimulated tissue” value (Calu-3 monolayers) was “very effectively stimulated transepithelial chloride secretion; also recorded: very effectively stimulated transepithelial chloride currents”, the “transepithelial chloride currents increased on average by” value ([1]; CF15 treated with 1 mM SNOG for 5-24 hours, L-ascorbate 1 mM, n=10) was 2.1±0.1 and the ΔISC ([1]; uncorrected CF15, L-ascorbic acid 500 μm, n=5) was 1.3±0.5 μA/cm^2. For the same compound, the ΔIsc ([1]; untreated CF epithelia, L-ascorbate 1 mM, amiloride, n=13) was 1.1±0.3 μA/cm^2.
